Drawing on ChEMBL document CHEMBL4118070, “Synthesis, antimicrobial, antiquorum-sensing and antitumor activities of new benzimidazole analogs” (Eur J Med Chem, 2017), this text covers MIC, Activity and IC50 for 12 molecules.

In general, MIC refers to the smallest concentration in the dilution series that meets the test's criterion for growth inhibition. The low end stands for a more susceptible organism, the high end for a less susceptible organism. In general, pIC50 refers to the negative decadic logarithm of the IC50, by convention in mol/L.

pIC50: −log10 of the molar value. ≈ marks a conversion by molar mass, not a printed value.

In assay [1] the test system is Escherichia coli. Kind of assay: Antibacterial activity against Escherichia coli ATCC 12435 after 24 hrs by two-fold serial dilution method. In kind it is functional. Particulars: ATCC 12435, 24 h.
Assay [2] deals with Bacillus cereus. Kind of assay: Antibacterial activity against Bacillus cereus UW 85 after 24 hrs by two-fold serial dilution method. In kind it is functional. Particulars: UW 85, 24 h.
Assay [3] has as its system Staphylococcus aureus. The assay is described as follows: Antibacterial activity against Staphylococcus aureus ATCC 29213 after 24 hrs by two-fold serial dilution method. In kind it is functional. Particulars: ATCC 29213, 24 h.
The subject of assay [4] is Candida albicans. The assay is described as follows: Antifungal activity against Candida albicans after 48 hrs by two-fold serial dilution method. In kind it is functional.
In assay [5] the test system is Aspergillus fumigatus. The assay is described as follows: Antifungal activity against Aspergillus fumigatus 293 after 48 hrs by two-fold serial dilution method. Format: functional. Particulars: Af293, 48 h.
The subject of assay [6] is Chromobacterium violaceum. The assay is described as follows: Inhibition of quorum sensing system in Chromobacterium violaceum ATCC 12472 assessed as diameter of violacein pigment inhibition at 5 mg/ml after 48 hrs.
Assay [7] has as its system HepG2. Kind of assay: Cytotoxicity against human HepG2 cells assessed as decrease in cell viability after 48 hrs by MTT assay. Format: functional, cell-based. Particulars: HepG2, 48 h.
Assay [8] deals with HCT-116. The assay is described as follows: Cytotoxicity against human HCT116 cells assessed as decrease in cell viability after 48 hrs by MTT assay. In kind it is functional, cell-based. Particulars: HCT-116, 48 h. Background: Formazan colour is commonly taken as a measure of viable cells.
Assay [9] has as its system MCF7. The assay is described as follows: Cytotoxicity against human MCF7 cells assessed as decrease in cell viability after 48 hrs by MTT assay. In kind it is functional, cell-based. Particulars: MCF7, 48 h.
Assay [10] in a line: Displacement of methyl green from DNA (unknown origin) incubated in dark for 24 hrs by colorimetric method.

Consider `CCOC(=O)c1c(NC(=O)CSCc2nc3cc([N+](=O)[O-])ccc3[nH]2)sc2c1CCCCC2`, for which the minimal inhibitory concentration (MIC) in [1] is 2560 µM; in assay [2], 2560 µM; in assay [3], 2560 µM; in assay [4], 1280 µM (≈ 625 µg/mL); in [5], 2560 µM. Moreover, the Activity in [6] was less than 2 mm. The pIC50 in assay [7] was 5.13; in [8] it was 5.12; in [9] it was 4.99.

For `OC(Cn1cncn1)(Cn1cncn1)c1ccc(F)cc1F` [FLUCONAZOLE], the MIC in assay [4] was 8160 µM (≈ 2500 µg/mL); in assay [5], more than 2500 µg/mL.

In the case of `N#CCSCc1nc2cc([N+](=O)[O-])ccc2[nH]1`, the MIC in assay [1] was more than 2500 µg/mL; in assay [2], 5040 µM; in assay [3] it was more than 2500 µg/mL; in assay [4] it was 5040 µM (≈ 1250 µg/mL); in assay [5], 5040 µM. In addition, the Activity in [6] was less than 2 mm. In addition, the pIC50 in assay [7] was 4.51; in assay [8] it was 4.55; in [9], 4.56.

In the case of `CC1=NN(C(=O)CSCc2nc3cc([N+](=O)[O-])ccc3[nH]2)C(=O)C1`, the MIC in [1] is more than 2500 µg/mL; in [2] it was more than 2500 µg/mL; in [3] it was more than 2500 µg/mL; in [4], 7200 µM (≈ 2500 µg/mL); in assay [5], more than 2500 µg/mL. Also, the Activity in assay [6] was less than 2 mm. Also, the pIC50 in [7] was 5.13; in assay [8], 5.27; in assay [9], 5.09.

In the case of `N#Cc1sc(Nc2ccccc2)nc1NC(=O)CSCc1nc2cc([N+](=O)[O-])ccc2[nH]1`, the minimal inhibitory concentration (MIC) in assay [1] was more than 2500 µg/mL; in assay [2], 5370 µM; in assay [3], 5370 µM; in [4], 2690 µM (≈ 1250 µg/mL); in assay [5] it was 5370 µM. Further, the Activity in assay [6] is less than 2 mm. Also, the figures for the pIC50 in [7], in [8] and in assay [9] were 5.02, 5.07 and 4.95, respectively.

Regarding `O=C(CSCc1nc2cc([N+](=O)[O-])ccc2[nH]1)c1ccccc1`, the MIC was more than 2500 µg/mL in assay [1]; more than 2500 µg/mL in assay [2]; 3820 µM in assay [3]; 1910 µM (≈ 625 µg/mL) in assay [4]; 7640 µM in assay [5]. For the same molecule, the Activity in assay [6] is less than 2 mm. The pIC50 in assay [7] was 4.79; in assay [8], 4.91; in [9], 4.73.

Molecule `COc1cccc2c1C(=O)c1c(O)c3c(c(O)c1C2=O)C[C@@](O)(C(=O)CO)C[C@@H]3O[C@H]1C[C@H](N)[C@H](O)[C@H](C)O1` [DOXORUBICIN] gave a pIC50 in assay [10] of 4.49.

For the molecule `CC1(C)S[C@@H]2[C@H](NC(=O)[C@H](N)c3ccccc3)C(=O)N2[C@H]1C(=O)O` [AMPICILLIN], the figures for the MIC in [1], in assay [2] and in assay [3] were 55.9 µM, 3580 µM and 894 µM, respectively.

In the case of `Oc1cc(O)c2c(c1)O[C@H](c1ccc(O)c(O)c1)[C@@H](O)C2`, in assay [6], the Activity is 2 mm.

For the molecule `O=[N+]([O-])c1ccc2[nH]c(CSCc3nc4ccccc4[nH]3)nc2c1`, the MIC in [1] was more than 2500 µg/mL; in assay [2], more than 2500 µg/mL; in [3], 3680 µM; in assay [4], 3680 µM (≈ 1250 µg/mL); in assay [5] it was more than 2500 µg/mL. Also, in [6], the Activity worked out at 4 mm. The pIC50 in assay [7] was 4.95; in [8], 5.10; in assay [9], 4.88.

For the molecule `O=C(CSCc1nc2cc([N+](=O)[O-])ccc2[nH]1)N/N=C/c1ccc(Cl)cc1`, the minimal inhibitory concentration (MIC) in assay [1] was more than 2500 µg/mL; in assay [2], more than 2500 µg/mL; in assay [3], more than 2500 µg/mL; in [4], 774 µM (≈ 312 µg/mL); in assay [5] it was 1550 µM. Besides, the Activity in assay [6] is less than 2 mm. Besides, the pIC50 is 4.25 in [7], 4.81 in [8] and 4.86 in assay [9].

Take `CCOC(=O)CSCc1nc2cc([N+](=O)[O-])ccc2[nH]1`: the minimum inhibitory concentration (MIC) in [1] came to 4230 µM; in assay [2], 2120 µM; in assay [3] it was 2120 µM; in assay [4], 2120 µM (≈ 625 µg/mL); in [5], 2120 µM. Besides, in assay [6], the Activity is less than 2 mm. For the same molecule, the negative-log IC50 (pIC50) in assay [7], in assay [8] and in assay [9] was less than 4.00 each time.
